From patent US10287255B2, “Compounds as histone deacetylase 6 inhibitors and pharmaceutical compositions comprising the same” (CHONG KUN DANG PHARMACEUTICAL CORP., priority 2014, dated 2019)

Tests used:
[1] = target: T1, human recombinant HDAC1 (Homo sapiens, UniProt Q13547); assay: HDAC1 enzyme activity inhibition assay (in vitro, fluorimetric); type: biochemical; conditions: human recombinant HDAC1, fluorimetric kit, 30° C. 60 minutes
T1 construct: purchased Enzo Life Science BML-SE456
How it was run: (§1)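 IC50 values derive from fluorescence (Ex 360, Em 460) after developer treatment (30 min) of reactions of recombinant human HDAC1 or HDAC6 with 10 μM Fluor de Lys-SIRT1 substrate (60 min, 30 °C). Compounds were serially diluted 5-fold; 0.3 μg enzyme was used for HDAC1, with HDAC6 tested identically.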

[2] = target: T2, human recombinant HDAC6 (Homo sapiens, UniProt Q9UBN7); assay: HDAC6 enzyme activity inhibition assay (in vitro, fluorimetric); type: biochemical; conditions: for HDAC6 selectivity (fold): HDAC6 selectivity over HDAC1; for IC50: human recombinant HDAC6, fluorimetric kit, same protocol as HDAC1
T2 construct: purchased Calbiochem 382180
T2 sequence (Q9UBN7 1-1215): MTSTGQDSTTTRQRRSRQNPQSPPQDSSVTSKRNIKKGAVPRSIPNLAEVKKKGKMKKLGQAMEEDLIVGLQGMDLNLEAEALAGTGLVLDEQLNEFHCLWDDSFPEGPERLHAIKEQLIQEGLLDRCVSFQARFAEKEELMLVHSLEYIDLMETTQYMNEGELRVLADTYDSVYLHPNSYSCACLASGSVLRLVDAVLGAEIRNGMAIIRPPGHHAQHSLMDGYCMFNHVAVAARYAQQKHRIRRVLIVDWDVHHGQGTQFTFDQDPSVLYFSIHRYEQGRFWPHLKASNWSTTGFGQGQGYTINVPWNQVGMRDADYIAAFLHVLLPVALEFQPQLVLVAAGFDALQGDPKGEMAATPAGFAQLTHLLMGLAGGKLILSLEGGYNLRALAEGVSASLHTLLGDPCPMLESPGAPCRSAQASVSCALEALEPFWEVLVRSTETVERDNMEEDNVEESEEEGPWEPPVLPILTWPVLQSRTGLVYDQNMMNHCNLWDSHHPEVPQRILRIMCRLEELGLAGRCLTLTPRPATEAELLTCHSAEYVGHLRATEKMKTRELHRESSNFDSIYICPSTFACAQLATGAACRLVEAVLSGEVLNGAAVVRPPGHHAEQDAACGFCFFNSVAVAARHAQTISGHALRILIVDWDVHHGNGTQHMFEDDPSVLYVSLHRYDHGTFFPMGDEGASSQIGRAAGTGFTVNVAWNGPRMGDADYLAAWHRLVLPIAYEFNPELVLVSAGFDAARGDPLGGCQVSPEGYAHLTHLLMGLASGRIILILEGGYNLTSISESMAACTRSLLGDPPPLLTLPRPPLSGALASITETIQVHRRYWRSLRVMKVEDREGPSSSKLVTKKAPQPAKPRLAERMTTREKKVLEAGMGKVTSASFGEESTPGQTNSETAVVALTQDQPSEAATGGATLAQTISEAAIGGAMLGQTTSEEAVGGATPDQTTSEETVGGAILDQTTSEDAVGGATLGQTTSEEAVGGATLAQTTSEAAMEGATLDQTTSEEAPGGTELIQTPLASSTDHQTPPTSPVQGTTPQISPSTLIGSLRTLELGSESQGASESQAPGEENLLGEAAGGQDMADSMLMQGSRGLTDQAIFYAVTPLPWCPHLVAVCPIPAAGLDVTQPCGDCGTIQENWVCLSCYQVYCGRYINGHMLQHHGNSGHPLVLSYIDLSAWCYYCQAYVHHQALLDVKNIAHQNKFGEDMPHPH
How it was run: as §1

T1 sequence (Q13547 whole entry): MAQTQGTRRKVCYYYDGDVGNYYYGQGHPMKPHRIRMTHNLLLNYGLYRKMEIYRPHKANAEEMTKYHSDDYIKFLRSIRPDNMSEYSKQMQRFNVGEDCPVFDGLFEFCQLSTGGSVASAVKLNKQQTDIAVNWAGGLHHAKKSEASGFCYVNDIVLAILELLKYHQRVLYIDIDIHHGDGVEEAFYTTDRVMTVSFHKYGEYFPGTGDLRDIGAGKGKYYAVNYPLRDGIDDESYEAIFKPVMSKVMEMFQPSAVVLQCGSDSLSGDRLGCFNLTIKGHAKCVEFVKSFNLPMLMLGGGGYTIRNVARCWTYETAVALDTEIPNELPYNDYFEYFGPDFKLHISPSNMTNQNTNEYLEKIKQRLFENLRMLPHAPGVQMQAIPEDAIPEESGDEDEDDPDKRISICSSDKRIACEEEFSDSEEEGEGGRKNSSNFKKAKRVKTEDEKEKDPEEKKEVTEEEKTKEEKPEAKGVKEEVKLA

Compound	IC50 [1] [nM]	HDAC6 selectivity (fold) [2] [fold]	IC50 [2] [nM]
CCN(CC)Cc1cccc(C(=O)N2[C@H](C)CN(Cc3ccc(C(=O)NO)cc3)C[C@@H]2C)c1 [Compound 425, 4-(((3R,5S)-4-(3-((diethylamino)methyl)benzoyl)-3,5-dimethylpiperazin-1-yl)methyl)-N-hydroxybenzamide]	1500	17	86
CCN(CC)Cc1cccc(CN2[C@H](C)CN(Cc3ccc(C(=O)NO)cc3)C[C@@H]2C)c1 [Compound 426, 4-(((3R,5S)-4-(3-((diethylamino)methyl)benzyl)-3,5-dimethylpiperazin-1-yl)methyl)-N-hydroxybenzamide]	5000	35	142
C[C@@H]1CN(Cc2ccc(C(=O)NO)cc2)C[C@H](C)N1Cc1cccc(CN2CCCC2)c1 [Compound 427, 4-(((3R,5S)-3,5-dimethyl-4-(3-(pyrrolidin-1-ylmethyl)benzyl)piperazin-1-yl)methyl)-N-hydroxybenzamide]	6000	40	152
C[C@@H]1CN(Cc2ccc(C(=O)NO)cc2)C[C@H](C)N1Cc1cccc(CN2CCN(C)CC2)c1 [Compound 428, 4-(((3R,5S)-3,5-dimethyl-4-(3-((4-methylpiperazin-1-yl)methyl)benzyl)piperazin-1-yl)methyl)-N-hydroxybenzamide]	4700	41	117
CCN1CCN(Cc2cccc(CN3[C@H](C)CN(Cc4ccc(C(=O)NO)cc4)C[C@@H]3C)c2)CC1 [Compound 429, 4-(((3R,5S)-4-(3-((4-ethylpiperazin-1-yl)methyl)benzyl)-3,5-dimethylpiperazin-1-yl)methyl)-N-hydroxybenzamide]	4400	44	100
CC(C)N1CCN(Cc2cccc(CN3[C@H](C)CN(Cc4ccc(C(=O)NO)cc4)C[C@@H]3C)c2)CC1 [Compound 430, N-hydroxy-4-(((3R,5S)-4-(3-((4-isopropylpiperazin-1-yl)methyl)benzyl)-3,5-dimethylpiperazin-1-yl)methyl)benzamide]	4500	55	82
CC(=O)N1CCN(Cc2cccc(CN3[C@H](C)CN(Cc4ccc(C(=O)NO)cc4)C[C@@H]3C)c2)CC1 [Compound 431, 4-(((3R,5S)-4-(3-((4-acetylpiperazin-1-yl)methyl)benzyl)-3,5-dimethylpiperazin-1-yl)methyl)-N-hydroxybenzamide]	13400	611	22
C[C@@H]1CN(Cc2ccc(C(=O)NO)cc2)C[C@H](C)N1C(=O)c1cccc(CN2CCN(C)CC2)c1 [Compound 432, 4-(((3R,5S)-3,5-dimethyl-4-(3-((4-methylpiperazin-1-yl)methyl)benzoyl)piperazin-1-yl)methyl)-N-hydroxybenzamide]	3400	81	42
CCN1CCN(Cc2cccc(C(=O)N3[C@H](C)CN(Cc4ccc(C(=O)NO)cc4)C[C@@H]3C)c2)CC1 [Compound 433, 4-(((3R,5S)-4-(3-((4-ethylpiperazin-1-yl)methyl)benzoyl)-3,5-dimethylpiperazin-1-yl)methyl)-N-hydroxybenzamide]	3500	71	49

Continued, values first:

IC50 [1] [nM]	HDAC6 selectivity (fold) [2] [fold]	IC50 [2] [nM]	Compound
3700	61	60	CC(C)N1CCN(Cc2cccc(C(=O)N3[C@H](C)CN(Cc4ccc(C(=O)NO)cc4)C[C@@H]3C)c2)CC1 [Compound 434, N-hydroxy-4-(((3R,5S)-4-(3-((4-isopropylpiperazin-1-yl)methyl)benzoyl)-3,5-dimethylpiperazin-1-yl)methyl)benzamide]
5100	57	90	CC(=O)N1CCN(Cc2cccc(C(=O)N3[C@H](C)CN(Cc4ccc(C(=O)NO)cc4)C[C@@H]3C)c2)CC1 [Compound 435, 4-(((3R,5S)-4-(3-((4-acetylpiperazin-1-yl)methyl)benzoyl)-3,5-dimethylpiperazin-1-yl)methyl)-N-hydroxybenzamide]
10900	105	104	C[C@@H]1CN(Cc2ccc(C(=O)NO)cc2)C[C@H](C)N1C(=O)c1cccc(CN2CCOCC2)c1 [Compound 439, 4-(((3R,5S)-3,5-dimethyl-4-(3-(morpholinomethyl)benzoyl)piperazin-1-yl)methyl)-N-hydroxybenzamide]
5600	71	78	CCN(CC)CC(C)NCc1cccc(C(=O)N2[C@H](C)CN(Cc3ccc(C(=O)NO)cc3)C[C@@H]2C)c1 (stereo partly drawn) [Compound 440, 4-(((3R,5S)-4-(3-(((1-(diethylamino)propan-2-yl)amino)methyl)benzoyl)-3,5-dimethylpiperazin-1-yl)methyl)-N-hydroxybenzamide]
5400	154	35	CC(CN(C)Cc1ccccc1)NCc1cccc(C(=O)N2[C@H](C)CN(Cc3ccc(C(=O)NO)cc3)C[C@@H]2C)c1 (stereo partly drawn) [Compound 441, 4-(((3R,5S)-4-(3-(((1-(benzyl(methyl)amino)propan-2-yl)amino)methyl)benzoyl)-3,5-dimethylpiperazin-1-yl)methyl)-N-hydroxybenzamide]
7800	65	120	CC(C)CCN1CCN(Cc2cccc(C(=O)N3[C@H](C)CN(Cc4ccc(C(=O)NO)cc4)C[C@@H]3C)c2)CC1 [Compound 442, N-hydroxy-4-(((3R,5S)-4-(3-((4-isopentylpiperazin-1-yl)methyl)benzoyl)-3,5-dimethylpiperazin-1-yl)methyl)benzamide]
9600	68	141	C[C@@H]1CN(Cc2ccc(C(=O)NO)cc2)C[C@H](C)N1C(=O)c1cccc(CN2CCN(CC(F)(F)F)CC2)c1 [Compound 443, 4-(((3R,5S)-3,5-dimethyl-4-(3-((4-(2,2,2-trifluoroethyl)piperazin-1-yl)methyl)benzoyl)piperazin-1-yl)methyl)-N-hydroxybenzamide]
8500	146	58	C[C@@H]1CN(Cc2ccc(C(=O)NO)cc2)C[C@H](C)N1C(=O)c1cccc(CN2CCN(S(C)(=O)=O)CC2)c1 [Compound 444, 4-(((3R,5S)-3,5-dimethyl-4-(3-((4-(methylsulfonyl)piperazin-1-yl)methyl)benzoyl)piperazin-1-yl)methyl)-N-hydroxybenzamide]
3800	33	114	C[C@@H]1CN(Cc2ccc(C(=O)NO)cc2)C[C@H](C)N1Cc1cccc(C(=O)N2CCOCC2)c1 [Compound 446, 4-(((3R,5S)-3,5-dimethyl-4-(3-(morpholine-4-carbonyl)benzyl)piperazin-1-yl)methyl)-N-hydroxybenzamide]
9100	140	65	C[C@@H]1CN(Cc2ccc(C(=O)NO)cc2)C[C@H](C)N1Cc1cccc(CN2CCN(S(C)(=O)=O)CC2)c1 [Compound 452, 4-(((3R,5S)-3,5-dimethyl-4-(3-((4-(methylsulfonyl)piperazin-1-yl)methyl)benzyl)piperazin-1-yl)methyl)-N-hydroxybenzamide]
11900	154	77	C[C@@H]1CN(Cc2ccc(C(=O)NO)cc2)C[C@H](C)N1Cc1cccc(CN2CCN(CC(F)(F)F)CC2)c1 [Compound 453, 4-(((3R,5S)-3,5-dimethyl-4-(3-((4-(2,2,2-trifluoroethyl)piperazin-1-yl)methyl)benzyl)piperazin-1-yl)methyl)-N-hydroxybenzamide]
